Measured values reported in patent US4076705A, “Dipeptide derivatives and their production” (Shionogi & Co., Ltd., priority 1974, dated 1978).

Tests used:
Type in all cases: in vivo
DS male mice [1] = assay: Taming activity; settings: for Taming activity ED50: given 60 minutes prior, inhibition of fighting responses to 5 Hz square wave pulse, 5 pairs; for times more potent than diazepam, taming activity: versus diazepam (Compound No. 5)
Method: This test was measured on DS male mice. […] These pairs of mice were selected in the morning and used for drug test in the afternoon. The test compound was administered to both mice of the pairs 60 minutes prior to the experiment. Results were obtained as the mean percentage of inhibition of fighting responses in a group of 5 pairs and shown by ED50 [Tedeschi, et al.: J. Pharmacol Exp. Thev., 125, 28-34 (1959) ].

DS male mice [2] = assay: Anti-pentylenetetrazol activity; settings: for Anti-pentylenetetrazol activity, ED50: oral, 60 minutes prior to 125 mg/kg s.c. pentylenetetrazol, complete protection against mortality, observed two hours; for times more potent than diazepam, anti-pentylenetetrazol activity: versus diazepam (Compound No. 5)
Source text: 1. Anti-pentylenetetrazol activity
The convulsions were disregarded.

DS male mice [3] = assay: Rotarod performance activity; settings: fall from rod (five rotations per minute) within less than 2 minutes
Method: 3. Rotarod performance activity
This test was measured on DS male mice. The mouse was put on a scraped rod of wood, 3 cm in diameter, turning at the rate of five rotations per minute. The mice that could remain on the rod for three or more minutes in successive trials were selected and placed in a group of 10 mice for each dose. If the mouse fell down from the rod within less than 2 minutes, the test compound was considered to be effective. Results were shown by ED50 [Dunham, et al.: J. Am. Pharm. Assoc., 46, 208 (1959)].

[4] = versus chlordiazepoxide (Compound No. 4)

| Structure (SMILES) | times more potent than chlordiazepoxide, taming activity (DS male mice [1]; [4]) [times] | Anti-pentylenetetrazol activity, ED50 (DS male mice [2]) [mg/kg] | times more potent than chlordiazepoxide, anti-pentylenetetrazol activity (DS male mice [2]; [4]) [times] | Taming activity ED50 (DS male mice [1]) [mg/kg] | times more potent than diazepam, taming activity (DS male mice [1]) [times] | times more potent than diazepam, anti-pentylenetetrazol activity (DS male mice [2]) [times] | Rotarod performance ED50 (DS male mice [3]) [mg/kg] |
| --- | --- | --- | --- | --- | --- | --- | --- |
| CN(C(=O)CNC(=O)CN)c1ccc(Cl)cc1C(=O)c1ccccc1 [Compound No. 1, 2-benzoyl-4-chloro-N-methyl-N^α -glycyl-glycinanilide] | 2 to 3 | 1.0 | 2 to 3 | – | – | – | – |
| CN(C(=O)CNC(=O)CN)c1ccc(Cl)cc1C(=O)c1ccccc1Cl.O [Compound No. 2, 2-o-chlorobenzoyl-4-chloro-N-methyl-N^α -glycyl-glycinanilide hydrate] | – | 0.58 | – | 3.0 | 2 to 4 | 2 to 4 | – |
| CN(C(=O)CNC(=O)CN)c1ccc(Cl)cc1C(=O)c1ccccc1F.Cl [Compound No. 3, 2-o-fluorobenzoyl-4-chloro-N-methyl-N^α -glycyl-glycinanilide hydrochloride] | – | 0.33 | – | 1.6 | 2 to 4 | 2 to 4 | 17.0 |
| CNC1=Nc2ccc(Cl)cc2C(c2ccccc2)=[N+]([O-])C1 [Compound No. 4, Chlordiazepoxide, reference compound] | – | – | – | – | – | – | 50.0 |
